According to paper PMC6496756, “Zerumbone, a cyclic sesquiterpene, exerts antimitotic activity in HeLa cells through tubulin binding and exhibits synergistic activity with vinblastine and paclitaxel” (Cell Proliferation, 2018):

Biological target: T1, tubulin (alpha/beta heterodimer)
T1 construct: purified goat brain tubulin; with alpha-tubulin/beta-tubulin heterodimer
Experiment: intrinsic tryptophan fluorescence quenching; also competition with colchicine and inhibition of tubulin polymerization
Format: binding, Capra hircus

Kd: 4 µM
SMILES: C/C1=C\CC(C)(C)/C=C/C(=O)/C(C)=C/CC1 [zerumbone, (2E,6E,10E)‐2,6,9,9‐tetramethylcycloundeca‐2,6,10‐trien‐1‐one]
